Test results taken from patent US7763605B2, “[1,4]benzodiazepines as vasopressin V2 receptor antagonists” (Janssen Pharmaceutica, N.V., priority 2004, dated 2010).
Structures can show the parent of a compound that is named as a salt.

Assays:
[1] = target: T1, human V-1 receptor (V1a) (Homo sapiens, UniProt P37288); assay: In vitro recombinant vasopressin receptor binding assay (3H-arginine vasopressin displacement), V1a; conditions: 0.2 μM test compound, cloned human receptor membranes from HEK-293 cells; for inhibition at 0.2 µM: read-out: Binding V1a (% inhib @ 0.2 μM)
T1 construct: expressed in transfected cells; host or cells: HEK-293 (membranes)
T1 sequence (P37288 whole entry): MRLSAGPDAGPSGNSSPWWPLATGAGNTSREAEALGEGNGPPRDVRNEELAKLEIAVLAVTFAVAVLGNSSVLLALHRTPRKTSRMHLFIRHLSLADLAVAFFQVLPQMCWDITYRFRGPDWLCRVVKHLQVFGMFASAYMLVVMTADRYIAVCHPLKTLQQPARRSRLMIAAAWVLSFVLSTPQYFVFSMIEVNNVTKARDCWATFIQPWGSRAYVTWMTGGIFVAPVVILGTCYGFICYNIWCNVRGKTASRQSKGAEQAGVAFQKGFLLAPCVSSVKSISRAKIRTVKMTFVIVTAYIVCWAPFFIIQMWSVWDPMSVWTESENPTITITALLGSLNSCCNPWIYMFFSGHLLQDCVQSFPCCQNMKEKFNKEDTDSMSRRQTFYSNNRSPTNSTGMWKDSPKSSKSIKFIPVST
Protocol: (§1) Compounds were assessed for their ability to displace ^3H-arginine vasopressin from the human V-1 or V-2 receptor in HEK-293 cells. Assay buffer is 50 mM Tris-Cl, 5 mM MgCl2, 0.1% BSA (pH 7.5) containing 5 ug/ml of aprotinin, leupeptin, pepstatin, 50 ug/ml bacitracin, and 1 mM Pefabloc. ^3H-vasopressin is ^3H-arginine-8-vasopressin (68.5 Ci/mmol, final concentration in assay is 0.65-0.75 nM). Into wells of 96-well round bottom polypropylene plates were added buffer, test compound, membrane (containing cloned human V-1 or V-2 receptor), and ^3H-vasopressin. The reaction plates were allowed to sit at room temperature for one hour. The samples were filtered through Unifilter GF/C plates (presoaked in 0.3 polyethyleneimine). The plates were washed 5 times with cold physiological saline containing 0.05% Tween 20. After drying, the bottom of the filter plates were sealed and 0.025 ml of Microscint-20 was added to each filter. The top of the plate was sealed, and the plate was counted. Non-specific binding was determined by the addition of 1.25 uM arginine-8-vasopressin in those wells.

[2] = target: T2, human V2 receptor (Homo sapiens, UniProt P30518); assay: In vitro recombinant vasopressin receptor binding assay (3H-arginine vasopressin displacement), V2; conditions: for IC50: cloned human receptor membranes from HEK-293 cells
T2 construct: expressed in transfected cells; host or cells: HEK-293
T2 sequence (P30518 whole entry): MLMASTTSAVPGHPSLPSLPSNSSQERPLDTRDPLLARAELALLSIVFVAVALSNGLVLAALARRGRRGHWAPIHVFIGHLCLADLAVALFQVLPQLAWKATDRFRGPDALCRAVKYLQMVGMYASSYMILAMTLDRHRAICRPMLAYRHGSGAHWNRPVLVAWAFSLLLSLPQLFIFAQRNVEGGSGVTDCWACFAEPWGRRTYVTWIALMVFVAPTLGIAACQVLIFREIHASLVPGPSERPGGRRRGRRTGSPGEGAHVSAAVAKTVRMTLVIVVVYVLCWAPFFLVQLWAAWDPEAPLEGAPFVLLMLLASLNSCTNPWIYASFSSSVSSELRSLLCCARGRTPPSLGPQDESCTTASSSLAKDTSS
Protocol: as §1

[3] = target: T2, human V2 receptor; assay: Inhibition of AVP-induced cAMP accumulation in transfected HEK-293 cells expressing human V2 receptor; assay type: cell-based; conditions: AVP 1 nM, HEK-293 expressing human V2, read-out: Functional V2 (IC50; μM)
Protocol: HEK-293 cells were grown in DMEM media supplemented with 10% FBS and glutamine (Gibco BRL, Grand Island, N.Y.). Once transfected, the cells were passed biweekly by trypsinization and seeded into 96 well plates at 33,000 cells per well. HEK-293 were transfected with human V1a, V1b or V2 DNA using DMRIE-C reagent from Life Technologies, Inc., Grand Island, N.Y. Cells were tested for their responsiveness to vasopressin 48 h after transfection. Stable lines were generated by selecting cells grown in culture media containing geneticin (500 μg/mL, Life Technologies).
The accumulation of cAMP was measured in transfected HEK-293 expressing the human V2 receptor. The cells were cultured 4-7 d in 96-well plates. On the day of testing in this assay, cells were washed twice in assay media (DMEM/F12 containing 0.1% BSA). The cells were treated with the test compound for 5 min and then given AVP (1 nM) in assay media containing 1 mM isobutylmethylxanthine. After 5 min, 0.5 N HCl was added to disrupt the cells and solubilize cAMP. The cAMP content of 20 μL of the cell lysate in each well was measured using cAMP Flashplates (NEN Life Sciences). Data are expressed as pmol cAMP/well. While the assay is optimized to detect and quantitate antagonistic activity, agonistic activity would also be apparent at the higher concentrations of test compounds.
The data from the cAMP accumulation and the calcium mobilization assays are expressed as IC50 values as determined from dose response curves.

| Molecule | inhibition at 0.2 µM [1] [%] | IC50 [2] [µM] | IC50 [3] [µM] | inhibition at 0.2 µM ([2]; read-out: Binding V2 (% inhib @ 0.2 μM)) [%] | Binding V1a (% inhib @ 0.2 μM) [1] [%] |
| --- | --- | --- | --- | --- | --- |
| O=C(Nc1ccc(C(=O)N2C[C@@H](CO)N(Cc3ccccc3)Cc3ccccc32)c(Cl)c1)c1ccccc1-c1ccccc1 [Cpd 1, (S)-Biphenyl-2-carboxylic acid [4-(4-benzyl-3-hydroxymethyl-2,3,4,5-tetrahydro-benzo[e][1,4]diazepine-1-carbonyl)-3-chloro-phenyl]-amide] | 1 | 0.5 | – | – | – |
| CSC[C@@H]1CN(C(=O)c2ccc(NC(=O)c3ccccc3-c3ccccc3)cc2Cl)c2ccccc2CN1C [Cpd 2, (S)-Biphenyl-2-carboxylic acid [3-chloro-4-(4-methyl-3-methylsulfanylmethyl-2,3,4,5-tetrahydrobenzo[e][1,4]diazepine-1-carbonyl)-phenyl]-amide] | 0 | 0.24 | 0.28 | – | – |
| CN1Cc2ccccc2N(C(=O)c2ccc(NC(=O)c3ccccc3-c3ccccc3)cc2Cl)C[C@@H]1CN1CCCC1 [Cpd 3, (S)-Biphenyl-2-carboxylic acid [3-chloro-4-(4-methyl-3-pyrrolidin-1-ylmethyl-2,3,4,5-tetrahydrobenzo[e][1,4]diazepine-1-carbonyl)-phenyl]-amide ditrifluoroacetate] | 0 | 0.34 | 0.71 | – | – |
| CN1Cc2ccccc2N(C(=O)c2ccc(NC(=O)c3ccccc3-c3ccccc3)cc2Cl)C[C@H]1COC1CCCC1 [Cpd 4, (S)-Biphenyl-2-carboxylic acid [3-chloro-4-(3-cyclopentyloxymethyl-4-methyl-2,3,4,5-tetrahydrobenzo[e][1,4]diazepine-1-carbonyl)-phenyl]-amide trifluoroacetate] | 0 | – | > 10 | 22 | – |
| CS(=O)(=O)OC[C@@H]1CN(C(=O)c2ccc(NC(=O)c3ccccc3-c3ccccc3)cc2Cl)c2ccccc2CN1S(C)(=O)=O [Cpd 8, (S)-methanesulfonic acid 1 {4-[(biphenyl-2-carbonyl)-amino]-2chloro-benzoyl}-4-methanesulfonyl-2,3,4,5-tetrahydro-1H-benzo[e][1,4]diazepin-3-ylmethyl ester] | 0 | 0.4 | 1.08 | – | – |
| O=C(Nc1ccc(C(=O)N2C[C@@H](CO)N(S(=O)(=O)c3ccccc3)Cc3ccccc32)c(Cl)c1)c1ccccc1-c1ccccc1 [Cpd 11, (S)-Biphenyl-2-carboxylic acid [4-(4-benzenesulfonyl-3-hydroxymethyl-2,3,4,5-tetrahydrobenzo[e][1,4]diazepine-1-carbonyl)-3-chloro-phenyl]-amide] | 0 | 0.23 | 0.773 | – | – |
| (S)-Biphenyl-2-carboxylic acid [3-chloro-4-(4-methyl-3-morpholino-4-ylmethyl-2,3,4,5-tetrahydrobenzo[e][1,4]diazepine-1-carbonyl)-phenyl]-amide ditrifluoroacetate [Cpd 5] | – | – | – | – | 0 |

Further lines, with some results ahead:

| inhibition at 0.2 µM [1] [%] | IC50 [2] [µM] | IC50 [3] [µM] | inhibition at 0.2 µM ([2]; read-out: Binding V2 (% inhib @ 0.2 μM)) [%] | Molecule | Binding V1a (% inhib @ 0.2 μM) [1] [%] |
| --- | --- | --- | --- | --- | --- |
| 0 | 0.066 | 0.025 | – | COC[C@@H]1CN(C(=O)c2ccc(NC(=O)c3ccccc3-c3ccccc3)cc2Cl)c2ccccc2CN1C [Cpd 6, (S)-Biphenyl-2-carboxylic acid [3-chloro-4-(3-methoxymethyl-4-methyl-2,3,4,5-tetrahydrobenzo[e][1,4]diazepine-1-carbonyl)-phenyl]-amide trifluoroacetate] | – |
| 4 | 0.05 | 0.02 | – | CS(=O)(=O)N1Cc2ccccc2N(C(=O)c2ccc(NC(=O)c3ccccc3-c3ccccc3)cc2Cl)C[C@H]1CO [Cpd 7, (S)-Biphenyl-2-carboxylic acid [3-chloro-4-(3-hydroxymethyl-4-methanesulfonyl-2,3,4,5-tetrahydrobenzo[e][1,4]diazepine-1-carbonyl)-phenyl]-amide] | – |
| 2 | 0.045 | 0.04 | – | CC(=O)OC[C@@H]1CN(C(=O)c2ccc(NC(=O)c3ccccc3-c3ccccc3)cc2Cl)c2ccccc2CN1C(C)=O [Cpd 9, (S)-Acetic acid 4-acetyl-1-{4-[(biphenyl-2-carbonyl)-amino]-2-chloro-benzoyl}-2,3,4,5-tetrahydro-1H-benzo[e][1,4]diazepin-3-ylmethyl ester] | – |
| 2 | 0.065 | 0.03 | – | CCCS(=O)(=O)N1Cc2ccccc2N(C(=O)c2ccc(NC(=O)c3ccccc3-c3ccccc3)cc2Cl)C[C@H]1CO [Cpd 10, (S)-Biphenyl-2-carboxylic acid {3-chloro-4-[3-hydroxymethyl-4-(propane-1-sulfonyl)-2,3,4,5-tetrahydrobenzo[e][1,4]diazepine-1-carbonyl]-phenyl}-amide] | – |
| 6 | 0.028 | 0.02 | – | CC(=O)N1Cc2ccccc2N(C(=O)c2ccc(NC(=O)c3ccccc3-c3ccccc3)cc2Cl)C[C@H]1CO [Cpd 12, (S)-Biphenyl-2-carboxylic acid [4-(4-acetyl-3-hydroxymethyl-2,3,4,5-tetrahydro-benzo[e][1,4]diazepine-1-carbonyl)-3-chloro-phenyl]-amide] | – |
